This is an account of results in ChEMBL document CHEMBL1125401, “CoMFA analysis of the interactions of antipicornavirus compounds in the binding pocket of human rhinovirus-14” (J Med Chem, 1992).

The assay relates to rhinovirus B14. The assay can be described thus: Compound was evaluated for inhibitory effect against human Rhinovirus-14. The format is functional.

The structures appear in SMILES notation. In brackets after ≈: the same amount, converted by molar mass.

Turning to `Cc1cc(CCCCCOc2ccc(C3=NCCO3)cc2)on1`, the MIC (Rhinovirus B, read-out: MIC) is 0.51 µM (≈ 0.16 µg/mL).
As to `Cc1cc(-c2nnn(C)n2)cc(C)c1OCCCCCc1cc(COCOCCO)no1`, the MIC (Rhinovirus B, read-out: MIC) was 0.06 µM (≈ 0.0267 µg/mL).
On to `CCC1COC(c2ccc(OCCCCCCCc3cc(C)no3)cc2)=N1` (stereo not given), for which the MIC (Rhinovirus B, read-out: MIC) is 0.03 µM (≈ 0.0111 µg/mL).
As to `Cc1cc(CCCCCOc2ccc(C3=NCCO3)cc2Cl)on1`, the MIC (Rhinovirus B, read-out: MIC) amounted to 2.41 µM (≈ 0.841 µg/mL).
As to `OCCOCOCc1cc(CCCCCOc2c(Cl)cc(C3=NCCO3)cc2Cl)on1`, the MIC amounted to 0.09 µM (≈ 0.0426 µg/mL). Moreover, the MIC (Rhinovirus B, read-out: MIC) is 0.06 µM (≈ 0.0284 µg/mL).
Consider `Cc1cc(CCCCCOc2ccc(-c3nc(C)c(C)o3)cc2)on1`, for which the MIC (Rhinovirus B, read-out: MIC) is 0.14 µM (≈ 0.0477 µg/mL).
On to `Cc1cc(CCCCCCCOc2ccc(C3=NC(C)CO3)cc2)on1` (stereo not given), for which, under “Rhinovirus B, read-out: MIC”, the MIC stood at 0.05 µM (≈ 0.0178 µg/mL).
For `Cc1cc(CCCCCCCOc2ccc(C3=NC(C)(C)CO3)cc2)on1`, for the setting “Rhinovirus B, read-out: MIC”, the MIC came to 0.16 µM (≈ 0.0593 µg/mL).
Consider `Cc1cc(CCCCCOc2c(Cl)cc(C3=NCCO3)cc2Cl)on1` [WIN-54954], for which the MIC (Rhinovirus B, read-out: MIC) turned out to be 1.5 µM (≈ 0.575 µg/mL).
